Experimental data taken from ChEMBL document CHEMBL3045209, “Synthesis of a novel barbiturate from 1-chloro-2,4-dinitrobenzene as an anticonvulsant agent” (2008).
Active and inactive are the calls of the source. No cut-off for these calls is given here.

Tests used:
[1] = tested on: Rattus norvegicus; assay: Anticonvulsant activity against maximal electroshock-induced convulsion in Rattus norvegicus albino (rat) assessed as tonic flexor convulsion time at 25 mg/kg administered 1 hr before test; format: functional
[2] = tested on: Rattus norvegicus; assay: Anticonvulsant activity against maximal electroshock-induced convulsion in Rattus norvegicus albino (rat) assessed as clonus convulsion time at 25 mg/kg administered 1 hr before test; format: functional
[3] = tested on: Rattus norvegicus; assay: Anticonvulsant activity against maximal electroshock-induced convulsion in Rattus norvegicus albino (rat) assessed as tonic extensor convulsion time at 100 mg/kg administered 1 hr before test; format: functional
[4] = tested on: Rattus norvegicus; assay: Anticonvulsant activity against maximal electroshock-induced convulsion in Rattus norvegicus albino (rat) assessed as tonic extensor convulsion time at 25 mg/kg administered 1 hr before test; format: functional
[5] = tested on: Rattus norvegicus; assay: Anticonvulsant activity against maximal electroshock-induced convulsion in Rattus norvegicus albino (rat) assessed as tonic flexor convulsion time at 100 mg/kg administered 1 hr before test; format: functional
[6] = tested on: Rattus norvegicus; assay: Anticonvulsant activity against maximal electroshock-induced convulsion in Rattus norvegicus albino (rat) assessed as tonic flexor convulsion time at 50 mg/kg administered 1 hr before test; format: functional
[7] = tested on: Rattus norvegicus; assay: Anticonvulsant activity against maximal electroshock-induced convulsion inRattus norvegicus albino (rat) assessed as stupor convulsion time at 50 mg/kg administered 1 hr before test; format: functional
[8] = tested on: Rattus norvegicus; assay: Anticonvulsant activity against maximal electroshock-induced convulsion in Rattus norvegicus albino (rat) assessed as stupor convulsion time at 100 mg/kg administered 1 hr before test; format: functional
[9] = tested on: Rattus norvegicus; assay: Anticonvulsant activity against maximal electroshock-induced convulsion in Rattus norvegicus albino (rat) assessed as clonus convulsion time at 100 mg/kg administered 1 hr before test; format: functional
[10] = tested on: Rattus norvegicus; assay: Anticonvulsant activity against maximal electroshock-induced convulsion in Rattus norvegicus albino (rat) assessed as tonic extensor convulsion time at 50 mg/kg administered 1 hr before test; format: functional
[11] = tested on: Rattus norvegicus; assay: Anticonvulsant activity against maximal electroshock-induced convulsion in Rattus norvegicus albino (rat) assessed as clonus convulsion time at 50 mg/kg administered 1 hr before test; format: functional
[12] = tested on: Rattus norvegicus; assay: Anticonvulsant activity against maximal electroshock-induced convulsion in Rattus norvegicus albino (rat) assessed as stupor convulsion time at 25 mg/kg administered 1 hr before test; format: functional
[13] = tested on: Rattus norvegicus; assay: Anticonvulsant activity against maximal electroshock-induced convulsion in Rattus norvegicus albino (rat) assessed as recovery from convulsion at 25 to 100 mg/kg administered 1 hr before test; format: functional, organism-based
[14] = tested on: Rattus norvegicus; assay: Anticonvulsant activity against maximal electroshock-induced convulsion in Rattus norvegicus albino (rat) assessed as recovery from convulsion at 25 mg/kg administered 1 hr before test; format: functional, organism-based; design: dose 25 mg/kg

Row | SMILES | Time [1] | Time [2] | Time [3] | Time [4] | Time [5] | Time [6] | Time [7] | Time [8] | Time [9] | Time [10] | Time [11] | Time [12] | Activity [13] | Activity [14]
1 | O=C1CC(=O)NC(=O)N1 [BARBITURIC ACID] | 4.2 s | 7.2 s | 2 s | 13.2 s | 2.9 s | 3.1 s | 82.2 s | 85.7 s | 5.6 s | 6.5 s | 5.1 s | 105.5 s | Active | –
2 | O=C1NC(=O)C(c2ccccc2)(c2ccccc2)N1 [PHENYTOIN] | 2.66 s | 4.6 s | – | 0 s | – | – | – | – | – | – | – | 62.1 s | – | Active
